The values below come from ChEMBL document CHEMBL1201862, “PubChem BioAssay data set” (2004).

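Method: 48-hour compound exposure of cells in 96-well plates, five concentrations, linear interpolation of endpoints. Abbreviation: GI50, concentration required for 50% inhibition of growth.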 Active and inactive are the calls of the source. Rule as the data show it: active = GI50 up to about 1.1 µM and inactive = higher.

Some test systems named below: DU-145; EKVX; HCT-15; HL-60; HOP-62; IGROV-1; K562; KM12; MDA-MB-435; NCI-H226; NCI-H23; NCI-H522; RXF 393; SW-620; T47D; U-251; UACC-257; UO-31; HOP-92.
What all share (assay): DTP human tumour cell line panel, 48 h

By GI50 is commonly meant the concentration at which growth is held to half of that of the control.

For the compound `CN(C)/C=C1\CCc2ccc([N+](=O)[O-])cc2C1=O`, the GI50 in the assay on DU-145 was > 100 µM (inactive); in the assay with EKVX, > 100 µM (inactive); with HCT-15, 44 µM; with HL-60, 25.7 µM (inactive); in the assay on HOP-62 it was > 100 µM (inactive); in the assay with IGROV-1 it was > 100 µM (inactive). Also, the GI50 was 24.4 µM (inactive) with K562; 55.8 µM (inactive) with KM12; 19.1 µM (inactive) in the assay on MDA-MB-435; > 100 µM (inactive) in the assay with NCI-H226; 53.6 µM (inactive) in the assay on NCI-H23; > 100 µM (inactive) in the assay on NCI-H522. Also, the GI50 with RXF 393 is > 100 µM (inactive); in the assay with SW-620, 32.1 µM (inactive); with T47D, 26.7 µM (inactive); with U-251, 75.7 µM (inactive); in the assay on UACC-257, 19.1 µM (inactive); in the assay on UO-31, > 100 µM (inactive).

`CN(C)/C=N/c1nc2ncn(CCOC(=O)c3ccccc3)c2c(=O)[nH]1`: the GI50 in the assay with EKVX is > 100 µM (inactive); in the assay with HCT-15, over 100 µM; with HL-60 it was > 100 µM (inactive); with HOP-62, > 100 µM (inactive); with HOP-92, > 100 µM (inactive); with IGROV-1, > 100 µM (inactive). In addition, the GI50 with K562, in the assay on KM12, in the assay on NCI-H226, with NCI-H522, in the assay with RXF 393 and with SW-620 was > 100 µM (inactive) throughout. Besides, the GI50 in the assay with U-251, in the assay on UACC-257 and in the assay with UO-31 was > 100 µM (inactive) each time.

As to `Brc1ccc(N2C[N+](c3ccc(Br)cc3)=NC(c3ccccc3)=N2)cc1`, the GI50 is 16.7 µM (inactive) in the assay on EKVX; 17.8 µM with HCT-15; 17.1 µM (inactive) in the assay on HL-60; 17.2 µM (inactive) in the assay with HOP-62; 18.7 µM (inactive) in the assay on HOP-92; 14.7 µM (inactive) with IGROV-1. The GI50 was 10.9 µM (inactive) in the assay on K562; 14.9 µM (inactive) in the assay with KM12; 27.2 µM (inactive) in the assay on NCI-H226; 16.1 µM (inactive) in the assay with NCI-H23; 19.6 µM (inactive) with NCI-H522; 22.6 µM (inactive) in the assay on RXF 393. Further, the GI50 in the assay on SW-620 was 20.9 µM (inactive); in the assay with U-251, 19.1 µM (inactive); in the assay with UACC-257, 17.5 µM (inactive); in the assay with UO-31 it was 14.5 µM (inactive).

`N#CC(C#N)=c1[nH]c2cccc3c2-c2c(cccc2c3=C(C#N)C#N)[nH]1`: the GI50 in the assay on EKVX was > 100 µM (inactive); with HCT-15 it was over 100 µM; with HL-60 it was > 100 µM (inactive); in the assay with HOP-62, > 100 µM (inactive); in the assay on HOP-92, > 100 µM (inactive); in the assay on IGROV-1 it was > 100 µM (inactive). Also, the GI50 is > 100 µM (inactive) in the assay on K562; > 100 µM (inactive) in the assay with KM12; > 100 µM (inactive) in the assay on NCI-H226; > 100 µM (inactive) in the assay on NCI-H23; > 100 µM (inactive) with NCI-H522; 79.6 µM (inactive) in the assay with RXF 393. Further, the GI50 in the assay on SW-620, in the assay with U-251, with UACC-257 and in the assay with UO-31 was > 100 µM (inactive) in each case.

Turning to `CC(=O)OCC1OC(N2C(=O)[C@@H](Oc3ccccc3)[C@H]2/C=C/c2ccccc2)C(OC(C)=O)C(OC(C)=O)C1OC(C)=O` (stereo partly drawn), the GI50 in the assay on EKVX is > 100 µM (inactive); with HCT-15 it was over 100 µM; in the assay with HL-60, > 100 µM (inactive); in the assay on HOP-62 it was 40.1 µM (inactive); with HOP-92, 44.5 µM (inactive); with IGROV-1, > 100 µM (inactive). Also, the GI50 in the assay with K562, in the assay on NCI-H226, in the assay with NCI-H23, in the assay on NCI-H522, with RXF 393 and in the assay with SW-620 was > 100 µM (inactive) throughout. For the same compound, the GI50 was 58.9 µM (inactive) in the assay on U-251, > 100 µM (inactive) in the assay on UACC-257 and > 100 µM (inactive) in the assay with UO-31.

For the compound `C[N+]1=C(c2cccnc2/C=N/O)OCC1(C)C`, the GI50 is > 100 µM (inactive) in the assay with EKVX; over 100 µM in the assay with HCT-15; > 100 µM (inactive) with HL-60; > 100 µM (inactive) in the assay on HOP-62; > 100 µM (inactive) in the assay with HOP-92; > 100 µM (inactive) in the assay on IGROV-1. Further, the GI50 in the assay on K562 is > 100 µM (inactive); with KM12 it was > 100 µM (inactive); in the assay on NCI-H226, < 0.01 µM (active); in the assay with NCI-H23, > 100 µM (inactive); in the assay on NCI-H522, > 100 µM (inactive); with RXF 393, > 100 µM (inactive). Also, the GI50 with SW-620, in the assay on U-251, with UACC-257 and with UO-31 was > 100 µM (inactive) each time.

Consider `COc1ccc(CCC2c3cc(OC)c(OC)cc3CCN2C)cc1OC` (stereo not drawn), for which the GI50 is > 100 µM (inactive) in the assay with EKVX; over 100 µM in the assay on HCT-15; > 100 µM (inactive) in the assay with HL-60; > 100 µM (inactive) in the assay with HOP-62; 46 µM (inactive) in the assay with HOP-92; > 100 µM (inactive) with IGROV-1. Moreover, the GI50 with K562, with KM12, in the assay on NCI-H226, in the assay on NCI-H23, in the assay on NCI-H522 and in the assay with RXF 393 was > 100 µM (inactive) throughout. Besides, the GI50 in the assay on SW-620, in the assay on U-251, in the assay on UACC-257 and in the assay on UO-31 was > 100 µM (inactive) throughout.

For the compound `COc1ccc(C2c3cc(OC)c(OC)cc3C(Cc3ccc([N+](=O)[O-])cc3)C2c2ccc([N+](=O)[O-])cc2)cc1OC` (stereo not drawn), the GI50 was > 100 µM (inactive) in the assay with EKVX; over 100 µM in the assay on HCT-15; > 100 µM (inactive) in the assay on HL-60; > 100 µM (inactive) with HOP-62; 0.879 µM (active) in the assay on HOP-92; > 100 µM (inactive) with IGROV-1. The GI50 in the assay on K562 was > 100 µM (inactive); in the assay on KM12, > 100 µM (inactive); in the assay on NCI-H226, > 100 µM (inactive); in the assay on NCI-H23 it was > 100 µM (inactive); in the assay with NCI-H522 it was 51.3 µM (inactive); in the assay on RXF 393, 27.7 µM (inactive). Moreover, the GI50 in the assay with SW-620 is > 100 µM (inactive); with U-251, > 100 µM (inactive); in the assay with UACC-257 it was > 100 µM (inactive); in the assay on UO-31 it was 59.6 µM (inactive).

Regarding `CN1Cc2c(nc(-c3ccc(Br)cc3)c[n+]2[O-])N(C)C1`, the GI50 in the assay with EKVX, in the assay on HL-60, in the assay on HOP-62, in the assay with HOP-92, in the assay on IGROV-1 and in the assay with K562 was > 100 µM (inactive) each time. In addition, the GI50 in the assay with KM12, in the assay with NCI-H226, in the assay on NCI-H23, in the assay on NCI-H522, with RXF 393 and with SW-620 was > 100 µM (inactive) each time. In addition, the GI50 in the assay on U-251, with UACC-257 and in the assay with UO-31 was > 100 µM (inactive) in each case.

Take `CCOC(=O)/C(=C\NC(=S)Nc1ccc(Cl)c(Cl)c1)C(=O)c1ccccc1`: the GI50 with DU-145 was > 100 µM (inactive); with EKVX it was > 100 µM (inactive); with HCT-15, 29.1 µM; in the assay with HL-60, 22.8 µM (inactive); in the assay with HOP-62, 40.6 µM (inactive); in the assay with IGROV-1, 33 µM (inactive). Moreover, the GI50 with K562 was 10 µM (inactive); in the assay on KM12, 26.5 µM (inactive); in the assay with MDA-MB-435, 17.7 µM (inactive); in the assay with NCI-H226 it was 13.9 µM (inactive); in the assay with NCI-H23, 8.61 µM (inactive); in the assay on NCI-H522, 6.3 µM (inactive). In addition, the GI50 was 21.6 µM (inactive) in the assay with RXF 393; 39.2 µM (inactive) with SW-620; 7.82 µM (inactive) in the assay on T47D; 37.2 µM (inactive) in the assay on U-251; 34 µM (inactive) with UACC-257; 1.52 µM (inactive) in the assay with UO-31.

Regarding `CC(=O)NC(C=O)C(O[C@H](C)C(=O)NC(C)C(=O)NC(CCC(N)=O)C(=O)OCc1ccccc1)C(O)C(O)COC(=O)CCNc1c2ccccc2nc2cccc([N+](=O)[O-])c12` (stereo partly drawn), the GI50 with EKVX was 5.7 µM (inactive); with HCT-15, 11.4 µM; with HL-60, 11.5 µM (inactive); with HOP-62, 2.95 µM (inactive); with HOP-92, 2.31 µM (inactive); in the assay with IGROV-1 it was > 100 µM (inactive). Also, the GI50 is 2.51 µM (inactive) in the assay with K562; 1.91 µM (inactive) in the assay on KM12; 2.6 µM (inactive) with NCI-H226; 2.47 µM (inactive) in the assay on NCI-H23; 1.62 µM (inactive) with NCI-H522; 3.96 µM (inactive) with RXF 393. The GI50 is 1.99 µM (inactive) in the assay on SW-620, 2.56 µM (inactive) in the assay with U-251, 7.46 µM (inactive) in the assay with UACC-257 and 16.9 µM (inactive) in the assay with UO-31.

In the case of `O=C(CO[N+](=O)[O-])OC/C=C/c1ccccc1`, the GI50 is > 100 µM (inactive) with EKVX; over 100 µM in the assay with HCT-15; 22.1 µM (inactive) with HL-60; > 100 µM (inactive) in the assay with HOP-62; > 100 µM (inactive) with HOP-92; > 100 µM (inactive) with IGROV-1. The GI50 in the assay with K562, in the assay on KM12, with NCI-H226, in the assay with NCI-H23, with NCI-H522 and with RXF 393 was > 100 µM (inactive) throughout. Also, the GI50 with SW-620, in the assay with U-251, in the assay on UACC-257 and in the assay with UO-31 was > 100 µM (inactive) in each case.
